The data set in a line: Donor sample analysis by chiral LC/MS/MS (oral fluid). It counts as in vivo. An excerpt: HPLC conditions were adapted from a separation method posted on the manufacturer's website (Sigma-Aldrich) using UV detection. A Supelco Astec Chirobiotic® V2 chiral column (5 μm particle size, 2.1×250 mm) from Sigma-Aldrich was used to achieve the chiral separation of the enantiomers for amphetamine and methamphetamine. The Chirobiotic® V2 column employs vancomycin as the chiral stationary phase to induce separation. The mobile phase consisted of 99.89:0.1:0.01 methanol:acetic acid:ammonium hydroxide (v/v/v) with a flow rate of 0.5 mL/min. The column temperature was 30° C. The HPLC employed was a Shimadzu Nexera UPLC system (Kyoto, Japan) operating at typical HPLC pressures. The injection volume for the method was 5 μL.
Detection was performed by an API 4000 triple-quadrupole mass spectrometer from AB Sciex (Foster City, Calif., USA). Column eluent was introduced into the mass spectrometer using the Turbolonspray® source operating in the positive ionization mode. Multiple-reaction monitoring (MRM) was used to analyze and detect each compound with a high degree of selectivity. The ionspray voltage was set at 5000V and the source temperature was 550° C. Parameters such as declustering potential (DP), collision energy (CE) and entrance and exit potentials (EP and CXP) were optimized for each analyte. The total analysis time for the method is 10 minutes.
Sample extraction was accomplished by aliquoting 200 μL of oral fluid sample into a 16×75 mm culture tube and adding 50 μL of internal standard (200 ng/mL racemic D11-amphetamine and […]). The sample was then treated with 25 μL of 10% sodium periodate solution and allowed to sit for 30 minutes after mixing. A 500 μL aliquot of 0.1 M phosphoric acid was added to each sample and mixed prior to transfer to the SPE wells.
The Agilent SPEC-DAU 96-well SPE plate was conditioned with 1 mL of methanol followed by 0.5 mL of 0.1 M phosphoric acid. Nitrogen gas was used to apply positive pressure for all SPE steps to induce a flow rate of about 1 to 2 mL per minute. […]
Several donor samples have been analyzed by this method. […]

Data on two compounds can be found in patent US20130177994A1, “METHODS FOR QU[…] DETERMINATION OF THE d- AND l- ENANTIOMERS OF AMPHETAMINE AND METHAMPHETAMINE” (CLINICAL REFERENCE LABORATORY, INC., priority 2012, published 2013).

Take `CN[C@@H](C)Cc1ccccc1` [d-Methamphetamine, d-methamphetamine]: the “% d-methamphetamine in samples containing methamphetamine” value (all donor samples containing methamphetamine) was more than 90%.
Regarding `C[C@H](N)Cc1ccccc1` [d-Amphetamine, d-amphetamine], the “% d-amphetamine in samples containing amphetamine” value is recorded as “approximately 70%” (9 out of 25 donor samples, consistent with Adderall use) and 100% (the remaining donor samples).
